Measurements taken from PMC12292302, “Revealing the Improving Effect and Molecular Mechanism of L-Clausenamide in Combating the Acute Lung Injury: Insights from Network Pharmacology, Molecular Docking, and In Vitro Validation” (Biology, 2025).

Target: AKT1 (RAC-alpha serine/threonine-protein kinase) (Homo sapiens, UniProt P31749)
Assay: SPR (Biacore 8K+, CM7 chip, purchased AKT1 protein MCE HY-P74421)
Assay type: binding

Sequence of AKT1 (RAC-alpha serine/threonine-protein kinase) (P31749 whole entry): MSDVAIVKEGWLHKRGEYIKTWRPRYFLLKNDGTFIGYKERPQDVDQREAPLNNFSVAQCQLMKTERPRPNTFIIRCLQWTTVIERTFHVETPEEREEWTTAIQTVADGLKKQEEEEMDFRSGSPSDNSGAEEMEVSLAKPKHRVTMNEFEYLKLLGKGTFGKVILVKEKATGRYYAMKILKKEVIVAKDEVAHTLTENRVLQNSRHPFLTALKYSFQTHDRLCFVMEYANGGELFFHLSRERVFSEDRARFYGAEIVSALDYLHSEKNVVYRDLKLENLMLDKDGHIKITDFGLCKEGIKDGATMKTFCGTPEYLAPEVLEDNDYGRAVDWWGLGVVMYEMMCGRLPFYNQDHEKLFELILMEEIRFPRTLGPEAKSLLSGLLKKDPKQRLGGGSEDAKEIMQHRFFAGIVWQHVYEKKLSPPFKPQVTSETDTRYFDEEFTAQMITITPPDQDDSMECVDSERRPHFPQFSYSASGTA

Kd: 10.3 µM
Compound: CN1C(=O)[C@@H](O)[C@H](c2ccccc2)[C@@H]1[C@@H](O)c1ccccc1 [L-Clausenamide]
